Source: article PMC6791878, “Evaluation of integrin αvβ6 cystine knot PET tracers to detect cancer and idiopathic pulmonary fibrosis” (Nature Communications, 2019)
“And” between values parts separate entries of the source, which are not always exact repeats. Equal entries are not always repeated. Where two headings read alike, the source gives them in different places.

Columns and labels:
human integrin αvβ6 [1] = molecular target: T1, human integrin αvβ6 (Homo sapiens, UniProt P06756+P18564, DEL708-788); parameters: method as in Kimura et al., Clin. Can. Res., 2012; conditions: ref Kimura et al., Clin. Can. Res., 2012; cited from earlier work
T1 construct: purchased R&D Systems

human integrin αvβ6 [2] = molecular target: T1, human integrin αvβ6; test: Equilibrium binding of yeast-displayed knottins to soluble integrin αvβ6 (two-colour flow cytometry, KD)
pancreatic cancer = test: [18F]FP-R01-MG-F2 vs [18F]FDG PET/CT in a pancreatic cancer patient (Stanford); conditions: one patient
Protocol: The line was flushed with at least 10 ml normal saline after injection. • Blood samples for blood time activity measurements were taken at 1, 3, 5, and 10 min after tracer administration and then at 30-minute intervals for up to 3 h after tracer injection. The counts in whole blood and plasma were measured by gamma counter (Perkin Elmer Wizard 1470). […] The scan was performed over the abdominal region to include the pancreas. Attenuation correction was employed via CT (120 kV, 10 mA). […] The scan was performed over the chest region. Attenuation correction was employed via CT (120 kV, 10 mA). • Static total-body (vertex-to-toe) PET/CT scans were acquired at 60 min and 120 min post injection. CT was performed at 120 kV; it was dose-modulated based on body habitus with current ranging from 10-105 mA for the 60-minute scan. […] EKG data was analyzed to assess changes in overall rhythm of the heart. • On the day of the study, participants were asked to void frequently to reduce radiation exposure. Urine samples were collected at prior to tracer administration (baseline), prior to the static PE scans, at the end of the study day 1, and at the follow up visits 1 day and 7 days after tracer administration.
Upon co-registration of the PET and CT images, the CT images were used to determine regions of interest for the organs or tissues reported in the manuscript. These ROIs were applied to the PET images of the brain, pituitary gland, breast, lower and upper large intestine, small intestine, stomach, pancreas, heart wall, liver, lung, muscle, red marrow, bone, skin, and thyroid gland. For high uptake organs such as the kidneys, bladder and for the whole body, threshold-based segmentation of PET images were used to determine a close-fitting ROI around the entire organ or whole body. In order to determine accuracy, these PET-derived ROIs were compared to the CT overlay for a close match.

cervical cancer = test: [18F]FDG PET/CT (PUMC Hospital); format: in vivo, human; conditions: second cervical cancer patient
Protocol: All patients were instructed to avoid strenuous work or exercise for at least 24 h prior to the scheduled study date. Study participants were also instructed to fast for at least 4 h before intravenous administration of the PET tracer. Patients were administered [^18F]FDG at a dosage of 5.55 MBq (0.15 mCi) per kilogram body weight. Immediately after tracer administration, patients were allowed to rest and relax in a warm, darkened room for approximately 45–60 min. Next, each patient emptied their bladder. The PET scan that followed spanned a region from the mid-thigh area to the base of the skull (six bed positions, 2 min bed^−1).

T1 sequence (P06756 31-992 limits assumed, stated change not applied): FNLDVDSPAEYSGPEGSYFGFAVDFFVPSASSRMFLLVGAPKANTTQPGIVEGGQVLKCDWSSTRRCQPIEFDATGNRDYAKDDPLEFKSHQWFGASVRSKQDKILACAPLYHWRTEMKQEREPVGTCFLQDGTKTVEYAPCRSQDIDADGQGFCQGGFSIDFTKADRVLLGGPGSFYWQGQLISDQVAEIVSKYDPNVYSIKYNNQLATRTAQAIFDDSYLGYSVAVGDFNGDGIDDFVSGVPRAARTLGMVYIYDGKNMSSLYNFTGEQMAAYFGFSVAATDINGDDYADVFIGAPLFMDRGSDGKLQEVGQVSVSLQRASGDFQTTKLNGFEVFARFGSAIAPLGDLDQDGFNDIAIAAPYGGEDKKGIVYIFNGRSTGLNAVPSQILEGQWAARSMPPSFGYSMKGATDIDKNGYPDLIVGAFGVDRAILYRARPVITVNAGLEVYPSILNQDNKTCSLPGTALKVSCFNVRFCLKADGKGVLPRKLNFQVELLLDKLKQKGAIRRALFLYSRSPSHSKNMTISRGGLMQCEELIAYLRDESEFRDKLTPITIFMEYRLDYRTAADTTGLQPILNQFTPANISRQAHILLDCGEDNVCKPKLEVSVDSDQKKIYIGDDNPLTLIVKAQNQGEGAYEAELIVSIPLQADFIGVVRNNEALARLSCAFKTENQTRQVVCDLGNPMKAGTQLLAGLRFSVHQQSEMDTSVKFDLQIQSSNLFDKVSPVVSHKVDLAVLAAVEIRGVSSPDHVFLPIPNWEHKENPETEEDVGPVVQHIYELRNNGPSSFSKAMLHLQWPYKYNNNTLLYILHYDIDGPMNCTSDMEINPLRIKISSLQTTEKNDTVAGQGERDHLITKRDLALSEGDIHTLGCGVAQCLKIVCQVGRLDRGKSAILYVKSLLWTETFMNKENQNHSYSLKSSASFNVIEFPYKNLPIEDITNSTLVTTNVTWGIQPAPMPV
T1 sequence (P18564 22-707 limits assumed, stated change not applied): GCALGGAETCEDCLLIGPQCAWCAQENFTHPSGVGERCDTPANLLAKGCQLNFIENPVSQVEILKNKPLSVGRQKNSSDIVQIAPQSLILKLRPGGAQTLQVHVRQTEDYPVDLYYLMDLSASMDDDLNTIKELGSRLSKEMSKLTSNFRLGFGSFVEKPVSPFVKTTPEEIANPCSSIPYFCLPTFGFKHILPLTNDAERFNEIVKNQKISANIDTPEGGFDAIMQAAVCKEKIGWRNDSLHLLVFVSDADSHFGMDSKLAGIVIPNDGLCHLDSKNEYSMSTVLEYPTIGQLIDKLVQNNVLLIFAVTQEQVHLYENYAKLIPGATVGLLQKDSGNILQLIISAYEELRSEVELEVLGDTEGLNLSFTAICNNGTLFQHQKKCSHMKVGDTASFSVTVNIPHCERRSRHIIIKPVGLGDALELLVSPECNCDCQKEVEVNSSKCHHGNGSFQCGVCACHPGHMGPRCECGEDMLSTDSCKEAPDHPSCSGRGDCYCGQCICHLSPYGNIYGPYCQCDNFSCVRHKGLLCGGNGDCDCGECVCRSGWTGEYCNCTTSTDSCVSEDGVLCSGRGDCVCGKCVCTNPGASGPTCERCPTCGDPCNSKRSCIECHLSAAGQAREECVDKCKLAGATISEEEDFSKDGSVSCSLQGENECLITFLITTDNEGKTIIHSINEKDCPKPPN

Row | SUVmean, liver (pancreatic cancer; 1 h p.i.) | SUVmean, small intestines (pancreatic cancer; 1 h p.i.) | SUVmean, stomach (pancreatic cancer; 1 h p.i.) | SUVmean, pancreatic tumor (pancreatic cancer; ~1 h p.i.) | SUVmean, cervical tumor (cervical cancer) | SMILES | Kd (human integrin αvβ6 [1]) [nM] | Kd (human integrin αvβ6 [2]) [nM]
1 |  |  |  |  |  | CC[C@H](C)[C@@H]1NC(=O)[C@@H](NC(=O)CN)CSSC[C@@H]2NC(=O)[C@H](C)NC(=O)CNC(=O)[C@@H]3CCCN3C(=O)[C@@H]3CSSC[C@@H](C(=O)NCC(N)=O)NC(=O)[C@H](Cc4ccc(O)cc4)NC(=O)CNC(=O)[C@H](CC(N)=O)NC(=O)CNC(=O)[C@H](CCCNC(=N)N)NC(=O)[C@H](CSSC[C@H](NC(=O)[C@H](CCCNC(=N)N)NC(=O)[C@H](Cc4ccccc4)NC(=O)[C@H](CC(C)C)NC(=O)[C@H](CC(C)C)NC(=O)[C@H]([C@@H](C)O)NC(=O)CNC(=O)[C@H](CC(C)C)NC(=O)[C@H](CC(=O)O)NC(=O)[C@H]([C@@H](C)O)NC(=O)[C@H](CCCNC(=N)N)NC(=O)[C@H](CCSC)NC(=O)[C@H](CC(N)=O)NC(=O)[C@H](CC(C)C)NC1=O)C(=O)N[C@@H](CCCNC(=N)N)C(=O)N[C@@H](CCCNC(=N)N)C(=O)N[C@@H](CC(=O)O)C(=O)N[C@@H](CO)C(=O)N[C@@H](CC(=O)O)C(=O)N3)NC(=O)[C@H]([C@@H](C)CC)NC2=O [R01] | ~3 | ~1
2 | 2.9 | 2.5 | 0.16 | 4.1 and ~ 4 | 4.1 | OC[C@H]1OC(O)[C@H]([18F])[C@@H](O)[C@@H]1O (stereo partly shown) [[^18F]FDG, reference compound] |  | 
